{"source": "patent US10683553B2", "about": "“Method for determining sensitivity to simultaneous inhibitor against PARP and Tankyrase” (THE ASAN FOUNDATION, priority 2015, dated 2020)", "type_in_all_cases": "cell-based", "key": {"[1]": {"tested_on": "HCT116 human colon cancer cell line", "assay": "DNA damage by r-H2AX immunocytochemistry", "settings": "HCT116 (p53 normal type); 50 μM, 48 hours", "source_text": "In order to analyze the degree of DNA damage of Compound A, which is a novel PARP/Tankyrase simultaneous inhibitor when the p53 gene is a normal type, the present inventors treated a novel PARP/Tankyrase simultaneous inhibitor, Compound A, and the competitive drug PARP inhibitor, olaparib, in the HCT116 human colon cancer cell line in which the p53 gene is a normal type, and then the DNA damage was confirmed by immunochemical method as the expression level of r-H2AX. The conditions and methods of the experiment were as follows: HCT116 human colon cancer cell line in which the p53 gene is a normal type was cultured in RPMI1640 (10% FBS, 1% penicillin/streptomycin) and cultured in a 60 mm plate at 1×10^5 per well for 24 hours at 37° C. Compound A, which is a novel PARP/Tankyrase simultaneous inhibitor, and olaparib, which is a competitive drug PARP inhibitor, were treated with 50 μM each and were cultured for 48 hours. […] The r-H2AX antibody was diluted at a ratio of 1:100 in 1% BSA, reacted overnight at 4° C., washed three times for 10 minutes with TBS-T buffer, and the secondary antibody (alexa Fluor®488 fitc) was diluted at a ratio of 1:100 in 1% BSA, reacted at room temperature for 2 hours, and then washed with TBS-T A buffer three times for 10 minutes, and stained with DAPI (4′,6-diamidino-2-phenylindole) to confirm the expression level of r-H2AX under a fluorescence microscope."}, "[2]": {"tested_on": "RKO human colon cancer cell line", "assay": "DNA damage by r-H2AX immunocytochemistry", "settings": "RKO (p53 normal, LIG4 mutant); 50 μM, 48 hours", "source_text": "In order to analyze the degree of DNA damage of Compound A, which is a novel PARP/Tankyrase simultaneous inhibitor, when the p53 gene is a normal type and the LIG4 gene is a mutant type, the present inventors treated a novel PARP/Tankyrase simultaneous inhibitor, Compound A, and the competitive drug PARP inhibitor, olaparib, in the RKO human colon cancer cell line in which the p53 gene is a normal type and the LIG4 gene is a mutant type, and the DNA damage was confirmed by the immunochemical method as the expression level of r-H2AX. The conditions and methods of the experiment were as follows: RKO human colon cancer cell line in which the p53 gene is a normal type and the LIG4 gene is a mutant type was cultured in RPMI1640 (10% FBS, 1% penicillin/streptomycin) and cultured in a 60 mm plate at 1×10^5 per well for 24 hours at 37° C. […] The r-H2AX antibody was diluted at a ratio of 1:100 in 1% BSA, reacted overnight at 4° C., washed three times for 10 minutes with TBS-T buffer, and the secondary antibody (Alexa Fluor®488 fitc) was diluted at a ratio of 1:100 in 1% BSA, reacted at room temperature for 2 hours, and then washed with TBS-T A buffer three times for 10 minutes, and stained with DAPI to confirm the expression level of r-H2AX under a fluorescence microscope."}, "[3]": {"tested_on": "HCT8 human colon cancer cell line", "assay": "Western blot of r-H2AX and truncated caspase 3 with overexpressed mutant LIG4", "settings": "HCT8 overexpressing LIG4 mutant G833A or T1704C", "procedure": "The present inventors conducted an experiment in the same manner as Example 9 to analyze the degree of apoptosis and DNA damage of Compound A, which is a novel PARP/Tankyrase simultaneous inhibitor, when the p53 genotype is a mutant type and an LIG4 genotype is a mutant type. The number of cells was measured by trypan blue staining method and the degree of apoptosis was confirmed. The cells were obtained using a centrifuge. Each cell thus obtained was dissolved using an RIPA buffer, and the proteins were extracted using a high-speed centrifuge. 30 μg protein per cell was electrophoresed by western blot method to separate proteins and transferred to PDVF membrane. The r-H2AX, truncated caspase 3, and b-actin antibody were diluted with each 1:2000 ratio in 5% skim milk. Then, the cells were reacted at 4° C. for 12 hours and then washed three times for 15 minutes with TBS-T buffer. The secondary antibody was diluted with each 1:2000 ratio in 5% skim milk and reacted at room temperature for 2 hours. It was washed with TBS-T buffer three times for 15 minutes to induce luminescence of PDVF membrane using ECL buffer solution to develop protein expression on each anti-body using an X-ray film."}}, "data": [{"smiles": "CCOc1cc(CN(C)C)cc2[nH]c(=O)c3c(c12)NCCC3", "note": "[Compound A, 8-[(dimethylamino)methyl]-10-ethoxy-1,2,3,4-tetrahydrobenzo[h][1,6]naphthyridin-5(6H)-one]", "values": [{"measurement": "DNA damage: expression level of r-H2AX (immunocytochemistry)", "setting": "[1]", "result": "higher expression of r-H2AX than the group treated with olaparib"}, {"measurement": "DNA damage: expression level of r-H2AX (immunocytochemistry)", "setting": "[2]", "result": "expression of r-H2AX was increased"}, {"measurement": "expression amount of truncated caspase 3 (western blot)", "setting": "[3]", "result": "also increased"}, {"measurement": "expression of r-H2AX (western blot)", "setting": "[3]", "result": "also increased"}]}]}
